Reference: patent US10870647B2, “Imidazopyridine derivative, method for preparing same, and pharmaceutical composition containing same as active ingredient for preventing or treating cancer” (DAEGU-GYEONGBUK MEDICAL INNOVATION FOUNDATION, priority 2016, dated 2020)

Legend:
Assay in all cases: Kinase selectivity, scanMAX Kinase assay panel (DiscoverX), % control at 1 uM
Assay type in all cases: binding
[1] = molecular target: T1, scanMAX Kinase assay panel (Homo sapiens, UniProt O00238); settings: BMPR1B; 1 uM; read-out: Percent Control (%)
T1 construct: purchased DiscoverX
Method in brief: (§1)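 A single concentration of 1 uM, in DMSO, is applied across the kinase panel. Activity against an individual enzyme is assigned where % control is less than 35.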

[2] = molecular target: T2, scanMAX Kinase assay panel (Homo sapiens, UniProt O60331); settings: PIP5K1C; 1 uM; read-out: Percent Control (%)
T2 construct: purchased DiscoverX
Method in brief: as §1

[3] = molecular target: T3, scanMAX Kinase assay panel (Homo sapiens, UniProt O95819); settings: MAP4K4; 1 uM; read-out: Percent Control (%)
T3 construct: purchased DiscoverX
Method in brief: as §1

[4] = molecular target: T4, scanMAX Kinase assay panel (Homo sapiens, UniProt O96013); settings: PAK4; 1 uM; read-out: Percent Control (%)
T4 construct: purchased DiscoverX
Method in brief: as §1

[5] = molecular target: T5, scanMAX Kinase assay panel (Homo sapiens, UniProt P31152); settings: ERK4; 1 uM; read-out: Percent Control (%)
T5 construct: purchased DiscoverX
Method in brief: as §1

[6] = molecular target: T6, scanMAX Kinase assay panel (Homo sapiens, UniProt P36888, D835H); settings: FLT3 (D835H); 1 uM; read-out: Percent Control (%)
T6 construct: purchased DiscoverX
T6 sequence (P36888 27-993 D835H): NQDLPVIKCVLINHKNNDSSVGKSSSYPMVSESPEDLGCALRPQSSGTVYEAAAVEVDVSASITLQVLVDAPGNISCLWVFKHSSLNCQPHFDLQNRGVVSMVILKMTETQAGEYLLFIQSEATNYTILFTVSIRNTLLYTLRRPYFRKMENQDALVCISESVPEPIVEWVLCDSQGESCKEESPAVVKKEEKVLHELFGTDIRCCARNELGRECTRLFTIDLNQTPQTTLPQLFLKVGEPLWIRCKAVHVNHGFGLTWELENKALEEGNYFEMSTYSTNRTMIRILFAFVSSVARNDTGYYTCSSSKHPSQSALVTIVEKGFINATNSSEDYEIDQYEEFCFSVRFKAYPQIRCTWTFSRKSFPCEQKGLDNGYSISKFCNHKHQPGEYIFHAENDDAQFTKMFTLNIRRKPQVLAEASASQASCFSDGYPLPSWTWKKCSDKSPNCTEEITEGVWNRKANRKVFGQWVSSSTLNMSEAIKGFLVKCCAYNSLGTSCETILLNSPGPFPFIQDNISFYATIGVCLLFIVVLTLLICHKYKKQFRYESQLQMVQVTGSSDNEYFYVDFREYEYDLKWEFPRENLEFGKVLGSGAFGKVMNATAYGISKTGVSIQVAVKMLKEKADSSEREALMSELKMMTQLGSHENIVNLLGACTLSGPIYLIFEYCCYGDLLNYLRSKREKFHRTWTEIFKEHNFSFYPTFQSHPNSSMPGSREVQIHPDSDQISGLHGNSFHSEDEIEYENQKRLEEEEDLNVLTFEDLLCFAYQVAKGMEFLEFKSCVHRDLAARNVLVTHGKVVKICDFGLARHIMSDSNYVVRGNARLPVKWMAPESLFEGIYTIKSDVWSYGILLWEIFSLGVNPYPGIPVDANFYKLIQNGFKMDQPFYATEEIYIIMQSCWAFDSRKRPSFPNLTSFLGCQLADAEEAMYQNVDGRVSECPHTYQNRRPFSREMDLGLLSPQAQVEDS
Method in brief: as §1

[7] = molecular target: T7, scanMAX Kinase assay panel (Homo sapiens, UniProt P48730); settings: CSNK1D; 1 uM; read-out: Percent Control (%)
T7 construct: purchased DiscoverX
Method in brief: as §1

[8] = molecular target: T8, scanMAX Kinase assay panel (Homo sapiens, UniProt P53671); settings: LIMK2; 1 uM; read-out: Percent Control (%)
T8 construct: purchased DiscoverX
Method in brief: as §1

[9] = molecular target: T9, scanMAX Kinase assay panel (Homo sapiens, UniProt Q99755); settings: PIP5K1A; 1 uM; read-out: Percent Control (%)
T9 construct: purchased DiscoverX
Method in brief: as §1

[10] = molecular target: T10, scanMAX Kinase assay panel (Homo sapiens, UniProt Q9NQU5); settings: PAK6; 1 uM; read-out: Percent Control (%)
T10 construct: purchased DiscoverX
Method in brief: as §1

T10 sequence (Q9NQU5 whole entry): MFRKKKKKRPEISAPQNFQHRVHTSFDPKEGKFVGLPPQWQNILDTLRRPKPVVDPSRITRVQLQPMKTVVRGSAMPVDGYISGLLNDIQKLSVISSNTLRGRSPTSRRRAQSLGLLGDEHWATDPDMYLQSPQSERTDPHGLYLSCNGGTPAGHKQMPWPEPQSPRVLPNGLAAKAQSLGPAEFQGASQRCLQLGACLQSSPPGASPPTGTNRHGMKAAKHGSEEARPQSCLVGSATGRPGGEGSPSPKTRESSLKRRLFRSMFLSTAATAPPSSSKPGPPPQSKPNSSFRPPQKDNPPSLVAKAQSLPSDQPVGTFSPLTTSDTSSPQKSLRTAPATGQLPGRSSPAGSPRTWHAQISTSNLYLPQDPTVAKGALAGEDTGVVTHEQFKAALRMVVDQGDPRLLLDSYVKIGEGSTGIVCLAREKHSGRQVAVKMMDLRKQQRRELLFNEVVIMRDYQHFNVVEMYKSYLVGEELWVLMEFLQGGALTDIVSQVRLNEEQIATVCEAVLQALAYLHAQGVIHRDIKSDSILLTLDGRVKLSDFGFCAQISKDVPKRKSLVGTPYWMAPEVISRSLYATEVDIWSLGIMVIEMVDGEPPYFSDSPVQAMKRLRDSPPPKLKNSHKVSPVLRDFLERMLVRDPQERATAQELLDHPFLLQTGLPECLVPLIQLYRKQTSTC
T2 sequence (O60331 whole entry): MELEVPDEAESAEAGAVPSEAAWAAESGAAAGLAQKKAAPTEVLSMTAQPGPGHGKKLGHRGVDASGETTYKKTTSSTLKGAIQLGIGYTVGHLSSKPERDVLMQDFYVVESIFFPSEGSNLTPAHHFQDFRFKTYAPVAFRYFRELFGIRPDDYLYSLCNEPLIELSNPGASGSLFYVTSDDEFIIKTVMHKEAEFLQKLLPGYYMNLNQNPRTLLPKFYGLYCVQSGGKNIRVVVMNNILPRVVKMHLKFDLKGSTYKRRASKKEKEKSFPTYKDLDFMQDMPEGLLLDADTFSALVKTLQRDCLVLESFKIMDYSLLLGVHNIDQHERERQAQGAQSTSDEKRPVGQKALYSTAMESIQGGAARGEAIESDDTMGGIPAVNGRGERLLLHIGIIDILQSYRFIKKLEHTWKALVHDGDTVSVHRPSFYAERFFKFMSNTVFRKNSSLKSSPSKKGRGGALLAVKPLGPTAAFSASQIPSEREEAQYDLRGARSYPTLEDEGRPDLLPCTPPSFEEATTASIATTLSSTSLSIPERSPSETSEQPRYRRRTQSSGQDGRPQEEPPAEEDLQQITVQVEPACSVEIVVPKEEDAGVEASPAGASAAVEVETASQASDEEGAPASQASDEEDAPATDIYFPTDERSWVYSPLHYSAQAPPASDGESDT
T4 sequence (O96013 whole entry): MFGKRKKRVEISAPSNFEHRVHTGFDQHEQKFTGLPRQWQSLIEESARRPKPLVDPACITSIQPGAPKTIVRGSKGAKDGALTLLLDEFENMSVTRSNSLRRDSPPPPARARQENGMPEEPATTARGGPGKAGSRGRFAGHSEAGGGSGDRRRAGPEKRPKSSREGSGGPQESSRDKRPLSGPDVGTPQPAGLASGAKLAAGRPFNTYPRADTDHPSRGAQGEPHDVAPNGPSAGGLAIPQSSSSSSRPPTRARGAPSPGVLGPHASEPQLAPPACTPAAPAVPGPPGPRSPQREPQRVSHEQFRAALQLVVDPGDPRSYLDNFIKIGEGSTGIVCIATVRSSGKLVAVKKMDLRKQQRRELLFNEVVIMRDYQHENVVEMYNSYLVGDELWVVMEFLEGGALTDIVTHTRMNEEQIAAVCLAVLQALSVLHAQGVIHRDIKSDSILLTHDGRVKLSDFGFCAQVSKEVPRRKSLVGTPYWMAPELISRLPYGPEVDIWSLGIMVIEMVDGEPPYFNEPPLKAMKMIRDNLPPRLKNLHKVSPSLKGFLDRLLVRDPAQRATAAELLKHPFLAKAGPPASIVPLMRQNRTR
T9 sequence (Q99755 whole entry): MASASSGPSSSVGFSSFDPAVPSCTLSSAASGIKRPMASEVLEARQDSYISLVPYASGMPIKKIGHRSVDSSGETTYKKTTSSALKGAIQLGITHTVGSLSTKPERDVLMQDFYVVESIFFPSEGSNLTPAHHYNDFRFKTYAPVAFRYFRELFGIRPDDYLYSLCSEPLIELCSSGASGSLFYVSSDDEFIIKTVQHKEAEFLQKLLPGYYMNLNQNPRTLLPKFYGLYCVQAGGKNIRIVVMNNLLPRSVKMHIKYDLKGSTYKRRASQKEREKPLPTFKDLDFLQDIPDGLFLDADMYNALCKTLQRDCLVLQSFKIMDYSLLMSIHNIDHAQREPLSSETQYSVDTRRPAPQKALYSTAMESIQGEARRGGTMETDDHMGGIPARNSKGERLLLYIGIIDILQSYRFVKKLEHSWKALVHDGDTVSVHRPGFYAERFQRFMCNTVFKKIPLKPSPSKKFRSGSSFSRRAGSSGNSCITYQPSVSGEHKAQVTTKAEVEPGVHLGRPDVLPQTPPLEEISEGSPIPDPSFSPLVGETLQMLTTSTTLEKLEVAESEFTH
T7 sequence (P48730 whole entry): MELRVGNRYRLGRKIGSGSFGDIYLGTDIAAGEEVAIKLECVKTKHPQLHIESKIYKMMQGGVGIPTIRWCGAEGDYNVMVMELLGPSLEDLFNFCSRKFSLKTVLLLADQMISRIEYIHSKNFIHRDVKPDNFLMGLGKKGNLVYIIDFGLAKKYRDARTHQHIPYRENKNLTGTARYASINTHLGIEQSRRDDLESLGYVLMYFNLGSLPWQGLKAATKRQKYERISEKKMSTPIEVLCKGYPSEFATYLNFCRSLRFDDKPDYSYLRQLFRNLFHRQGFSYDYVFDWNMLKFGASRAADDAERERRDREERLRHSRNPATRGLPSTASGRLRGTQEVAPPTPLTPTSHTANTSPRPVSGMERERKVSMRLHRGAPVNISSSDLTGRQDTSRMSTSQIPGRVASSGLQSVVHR
T3 sequence (O95819 whole entry): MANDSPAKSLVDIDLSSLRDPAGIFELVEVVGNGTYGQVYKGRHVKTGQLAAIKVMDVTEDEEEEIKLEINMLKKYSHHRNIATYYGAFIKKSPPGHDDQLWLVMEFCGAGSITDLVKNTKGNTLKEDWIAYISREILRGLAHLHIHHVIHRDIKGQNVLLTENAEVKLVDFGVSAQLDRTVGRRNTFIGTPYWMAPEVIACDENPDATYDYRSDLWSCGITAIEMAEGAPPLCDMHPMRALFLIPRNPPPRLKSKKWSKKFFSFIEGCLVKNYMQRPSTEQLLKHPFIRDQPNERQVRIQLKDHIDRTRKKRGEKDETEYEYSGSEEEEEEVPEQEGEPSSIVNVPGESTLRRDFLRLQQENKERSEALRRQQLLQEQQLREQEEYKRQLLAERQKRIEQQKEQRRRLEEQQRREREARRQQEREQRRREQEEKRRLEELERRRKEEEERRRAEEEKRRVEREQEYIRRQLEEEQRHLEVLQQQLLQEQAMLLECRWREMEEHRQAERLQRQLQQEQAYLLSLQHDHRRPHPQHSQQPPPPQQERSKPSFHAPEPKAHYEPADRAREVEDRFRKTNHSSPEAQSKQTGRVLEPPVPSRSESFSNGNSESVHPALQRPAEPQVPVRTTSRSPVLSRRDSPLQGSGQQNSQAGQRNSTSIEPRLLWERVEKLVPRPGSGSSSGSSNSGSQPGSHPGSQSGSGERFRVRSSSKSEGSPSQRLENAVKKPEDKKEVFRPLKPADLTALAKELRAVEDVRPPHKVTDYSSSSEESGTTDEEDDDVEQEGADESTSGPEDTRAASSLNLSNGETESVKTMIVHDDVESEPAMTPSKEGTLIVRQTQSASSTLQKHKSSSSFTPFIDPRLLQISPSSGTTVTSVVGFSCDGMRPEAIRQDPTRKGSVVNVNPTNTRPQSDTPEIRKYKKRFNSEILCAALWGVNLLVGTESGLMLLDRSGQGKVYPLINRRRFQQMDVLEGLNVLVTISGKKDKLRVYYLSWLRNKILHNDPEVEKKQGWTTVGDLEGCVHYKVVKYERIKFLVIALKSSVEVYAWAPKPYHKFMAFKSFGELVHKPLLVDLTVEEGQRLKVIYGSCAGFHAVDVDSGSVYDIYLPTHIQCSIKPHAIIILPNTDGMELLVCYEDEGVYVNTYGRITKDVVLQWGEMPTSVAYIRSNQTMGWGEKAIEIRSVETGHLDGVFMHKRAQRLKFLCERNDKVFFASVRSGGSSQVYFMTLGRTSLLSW
T8 sequence (P53671 whole entry): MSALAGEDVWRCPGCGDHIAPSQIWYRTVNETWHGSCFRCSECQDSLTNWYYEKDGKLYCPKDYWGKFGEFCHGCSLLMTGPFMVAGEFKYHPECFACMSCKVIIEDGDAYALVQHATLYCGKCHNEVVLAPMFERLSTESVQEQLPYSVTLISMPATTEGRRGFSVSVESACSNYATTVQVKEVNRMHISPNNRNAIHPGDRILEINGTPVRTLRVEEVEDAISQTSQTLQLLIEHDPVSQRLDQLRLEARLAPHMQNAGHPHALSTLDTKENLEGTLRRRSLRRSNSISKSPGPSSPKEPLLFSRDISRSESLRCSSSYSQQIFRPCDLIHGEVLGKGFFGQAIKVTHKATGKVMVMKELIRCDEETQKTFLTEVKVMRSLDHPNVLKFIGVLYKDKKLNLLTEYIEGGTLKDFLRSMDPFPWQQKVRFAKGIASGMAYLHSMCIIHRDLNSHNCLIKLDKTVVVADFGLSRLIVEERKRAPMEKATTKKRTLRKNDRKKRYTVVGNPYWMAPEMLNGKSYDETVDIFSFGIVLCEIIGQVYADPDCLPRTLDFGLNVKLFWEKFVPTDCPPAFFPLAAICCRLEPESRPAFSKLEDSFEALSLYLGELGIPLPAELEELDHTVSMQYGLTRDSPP

SMILES	remaining binding at 1 µM [1] [%]	remaining binding at 1 µM [2] [%]	remaining binding at 1 µM [3] [%]	remaining binding at 1 µM [4] [%]	remaining binding at 1 µM [5] [%]	remaining binding at 1 µM [6] [%]	remaining binding at 1 µM [7] [%]	remaining binding at 1 µM [8] [%]	remaining binding at 1 µM [9] [%]	remaining binding at 1 µM [10] [%]
Cc1ccc(C(=O)Nc2ccc(CN3CCN(C)CC3)c(C(F)(F)F)c2)cc1C#Cc1cnc2c(Nc3cnn(C)c3)cccn12 [Example 1, 4-methyl-3-((8-((1-methyl-1H-pyrazol-4-yl)amino)imidazo[1,2-a]pyridin-3-yl)ethynyl)-N-(4-((4-methylpiperazin-1-yl)methyl)-3-(trifluoromethyl)phenyl)benzamide]	99	88	1	85	91	1	91	3	94	66
Cc1cn(-c2cc(NC(=O)c3ccc(C)c(C#Cc4cnc5c(Nc6cnn(C)c6)cccn45)c3)cc(C(F)(F)F)c2)cn1 [Example 12, 4-methyl-N-(3-(4-methyl-1H-imidazol-1-yl)-5-(trifluoromethyl)phenyl)-3-((8-((1-methyl-1H-pyrazol-4-yl)amino)imidazo[1,2-a]pyridin-3-yl)ethynyl)benzamide]	100	71	4	98	100	10	79	50	84	84
Cc1ccc(NC(=O)C2(C(=O)Nc3ccc(F)cc3)CC2)cc1C#Cc1cnc2c(Nc3cnn(C(C)C)c3)cccn12 [Example 78]	100	92	99	100	100	95	92	100	98	97
